Publication PMC7880572 (ACS Chemical Neuroscience, 2021)
Read-outs that look alike come from different tables or passages of the source.

Columns and labels:
in vitro = details: PAMPA, pH 7.4
hMAO A = target: T1, hMAO A (Homo sapiens, UniProt P21397); assay: MAO A inhibition (fluorimetric kynuramine assay); assay type: biochemical; details: mean ± SEM, n = 3
T1 construct: purchased Sigma-Aldrich
T1 sequence (P21397 1-527): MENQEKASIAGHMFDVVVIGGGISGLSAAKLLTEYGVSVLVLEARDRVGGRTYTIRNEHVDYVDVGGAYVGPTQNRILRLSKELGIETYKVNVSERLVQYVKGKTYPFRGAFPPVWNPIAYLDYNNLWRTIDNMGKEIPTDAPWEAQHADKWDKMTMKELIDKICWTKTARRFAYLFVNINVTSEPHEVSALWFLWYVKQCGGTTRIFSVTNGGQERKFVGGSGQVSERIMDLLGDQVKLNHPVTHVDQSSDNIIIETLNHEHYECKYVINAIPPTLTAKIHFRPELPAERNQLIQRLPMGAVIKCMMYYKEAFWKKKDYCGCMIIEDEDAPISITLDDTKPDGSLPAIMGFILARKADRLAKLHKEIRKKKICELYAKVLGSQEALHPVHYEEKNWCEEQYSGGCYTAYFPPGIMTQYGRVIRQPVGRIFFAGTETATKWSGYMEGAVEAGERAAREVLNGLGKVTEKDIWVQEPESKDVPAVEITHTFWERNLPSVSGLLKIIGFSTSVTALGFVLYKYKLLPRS

MAO B [1] = target: T2, MAO B (Homo sapiens, UniProt P27338); assay: MAO B inhibition (fluorimetric kynuramine assay, inhibition kinetics); assay type: biochemical; details: mean ± SEM, n = 3
T2 construct: purchased Sigma-Aldrich
T2 sequence (P27338 1-520): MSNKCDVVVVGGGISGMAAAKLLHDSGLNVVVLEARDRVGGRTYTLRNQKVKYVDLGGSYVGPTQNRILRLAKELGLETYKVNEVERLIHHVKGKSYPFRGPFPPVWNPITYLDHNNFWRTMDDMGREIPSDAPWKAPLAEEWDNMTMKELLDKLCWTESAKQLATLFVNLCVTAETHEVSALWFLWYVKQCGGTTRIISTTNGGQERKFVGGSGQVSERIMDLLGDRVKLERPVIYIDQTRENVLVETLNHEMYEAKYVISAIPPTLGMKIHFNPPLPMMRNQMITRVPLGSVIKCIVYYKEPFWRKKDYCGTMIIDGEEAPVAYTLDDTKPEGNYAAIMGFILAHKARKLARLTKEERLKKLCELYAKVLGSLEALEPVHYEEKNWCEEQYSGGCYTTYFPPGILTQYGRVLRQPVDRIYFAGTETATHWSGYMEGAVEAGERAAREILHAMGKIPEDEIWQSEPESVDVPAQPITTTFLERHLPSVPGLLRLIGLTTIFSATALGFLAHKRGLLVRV

Aβ40 = target: T3, Aβ40 (Homo sapiens, UniProt P05067); assay: Inhibition of self-induced Aβ40 aggregation (ThT fluorescence, HFIP); assay type: biochemical; details: Aβ40 30 μM, mean ± SEM, n = 3; for inhibition at 100 µM: read-out: Aβ40 aggr % inhibition; for IC50: 2 h at 25 °C, PBS 2% HFIP, read-out: Aβ40 aggr IC50
T3 construct: samples of Aβ40 (30 μM) were coincubated for 2 h at 25 °C with test molecules; purchased EzBiolab, Carmel, IN, USA
Method: In vitro inhibition of Aβ40 aggregation was assessed following a previously reported thioflavin T (ThT) fluorescence-based method involving the use of hexafluoroisopropanol (HFIP) as aggregation enhancer. […].
In vitro inhibition assay of Aβ40 aggregation has been previously reported[41] and adapted to a 96-well plate platform.
(§1) After incubation in 96-well black, nonbinding microplates (Greiner Bio-One GmbH, Frickenhausen, Germany), thioflavin T (25 μM) was added and fluorimetric reads (ex 440, em 485 nm) were performed in a multiplate reader Infinite M1000 Pro (Tecan, Cernusco sul Naviglio, Italy). Experiments were run in triplicate. Results were expressed by statistical analysis while IC50 values were obtained by nonlinear regression using Prism software (GraphPad Prism version 5.00 for Windows, GraphPad Software, San Diego, CA, USA).

[2] = target: T4, eeAChE (AChE from electric eel) (Electrophorus electricus, UniProt O42275); assay: biochemical; details: mean ± SEM, n = 3
T4 construct: purchased Sigma-Aldrich, Milan, Italy

[3] = target: T5, esBChE (BChE from equine serum) (Equus caballus, UniProt P81908); assay: biochemical; details: mean ± SEM, n = 3
T5 construct: BChE from horse serum (13 U/mL); purchased Sigma-Aldrich, Milan, Italy; host or cells: horse serum

cerebellar granule cells = assay: In vitro cytotoxicity (MTT); assay type: cell-based; details: CGCs, compound 10 μM, 48 h, mean ± SEM
Method: . […] For a more meaningful assessment of the value of the present compounds, the issue of their toxicity, in comparison to established drugs for AD, should deserve further investigation.
Cerebellar granule cells were prepared from 8-day-old Sprague Dawley rats as described previously.[66] Cells were studied from the 6th to the 12th day in vitro. The experimental procedures and care of the animals were performed in compliance with the Directive of the EU Parliament and Council of September 22, 2010 (2010/63/EU) and were approved by the Italian Ministry of Health (COD. 75F11.N.6DX) in accordance with D.M. 116/1992. All efforts were made in order to minimize animal suffering and the number of animals necessary to obtain reliable results.
[…]. Cells were maintained in 5% CO2 at 37 °C. The cell viability was assessed by the MTT assay 48 h after the treatment. […]. The survival rates of viable cells were calculated by comparing the optical absorbance of treated samples with that of the untreated controls. All experiments were repeated at least three times independently, and data are expressed as the mean ± SEM.

Aβ42 = target: T6, Aβ42 (Homo sapiens, UniProt P05067); assay: Inhibition of Aβ42 fibrillation by ThT fluorescence assay; assay type: biochemical; details: 100 and 5 μM, Aβ42 30 μM, 37 °C, 48 h
T6 construct: purchased EzBiolab, Carmel, IN, USA
Method: Its high propensity to self-aggregate allows a fast execution of aggregation assays without the need of aggregation enhancers as for Aβ40.
Quercetin (QUR) was used as reference compound.
as §1

AChE = test system: AChE; parameters: method as in PMID 25924599; details: first series; cited from earlier work
BChE = test system: BChE; parameters: method as in PMID 25924599; details: first series; cited from earlier work
MAO B [4] = target: T2, MAO B; assay: MAO B kynuramine assay in spectrophotometric mode (4-hydroxyquinoline absorbance at 316 nm), incl. time course; assay type: biochemical; details: 100 nM inhibitor
[5] = based on the PAMPA-BBB classification range from Di et al.

T3 sequence (P05067 672-711 limits assumed): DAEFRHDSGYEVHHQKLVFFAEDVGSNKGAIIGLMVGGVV
T5 sequence (P81908 whole entry): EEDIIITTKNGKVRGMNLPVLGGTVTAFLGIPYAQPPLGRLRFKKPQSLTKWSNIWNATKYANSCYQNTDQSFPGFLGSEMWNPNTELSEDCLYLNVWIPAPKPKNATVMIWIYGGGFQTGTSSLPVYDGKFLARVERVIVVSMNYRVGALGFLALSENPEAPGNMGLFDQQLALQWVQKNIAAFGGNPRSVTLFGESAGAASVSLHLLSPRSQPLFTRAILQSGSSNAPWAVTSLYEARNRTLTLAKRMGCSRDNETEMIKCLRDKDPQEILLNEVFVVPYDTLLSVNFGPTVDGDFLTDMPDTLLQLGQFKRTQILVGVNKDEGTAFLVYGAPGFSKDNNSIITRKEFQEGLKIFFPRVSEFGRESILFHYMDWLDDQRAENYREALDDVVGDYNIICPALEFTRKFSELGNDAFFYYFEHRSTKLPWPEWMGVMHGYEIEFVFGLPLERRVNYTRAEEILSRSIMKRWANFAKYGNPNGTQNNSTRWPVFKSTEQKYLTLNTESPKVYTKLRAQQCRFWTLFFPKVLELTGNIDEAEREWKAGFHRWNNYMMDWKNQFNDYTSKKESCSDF
T4 sequence (O42275 24-633): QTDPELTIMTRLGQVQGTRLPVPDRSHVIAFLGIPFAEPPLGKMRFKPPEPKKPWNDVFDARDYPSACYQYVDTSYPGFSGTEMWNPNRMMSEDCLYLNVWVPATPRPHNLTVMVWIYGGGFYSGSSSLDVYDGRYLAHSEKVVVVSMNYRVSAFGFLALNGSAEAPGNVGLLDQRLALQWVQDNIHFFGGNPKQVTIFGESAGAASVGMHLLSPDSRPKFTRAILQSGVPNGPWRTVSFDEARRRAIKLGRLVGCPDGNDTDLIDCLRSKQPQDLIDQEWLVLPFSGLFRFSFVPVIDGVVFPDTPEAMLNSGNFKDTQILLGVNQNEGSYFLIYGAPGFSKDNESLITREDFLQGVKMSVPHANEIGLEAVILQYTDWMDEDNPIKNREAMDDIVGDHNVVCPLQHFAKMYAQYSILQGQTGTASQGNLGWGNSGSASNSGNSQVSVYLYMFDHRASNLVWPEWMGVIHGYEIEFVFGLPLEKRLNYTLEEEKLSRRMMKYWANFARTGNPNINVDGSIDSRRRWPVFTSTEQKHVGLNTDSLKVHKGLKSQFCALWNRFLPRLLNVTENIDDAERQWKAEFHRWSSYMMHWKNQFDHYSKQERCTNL
T6 sequence (P05067 672-713 limits assumed): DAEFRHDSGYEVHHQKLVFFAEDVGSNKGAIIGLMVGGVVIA

| Compound | Papp at 16 h (in vitro) [×10⁻⁶ cm/s] | inhibition at 10 µM (hMAO A) [%] | inhibition at 10 µM [3] [%] | IC50 (Aβ40) [µM] | IC50 [2] [µM] | further results |
| --- | --- | --- | --- | --- | --- | --- |
| CN(C)CCCN1c2ccccc2Sc2ccc(Cl)cc21 [Chlorpromazine] | 7.2 |  |  |  |  |  |
| Clc1cccc(Cl)c1N=C1NCCN1 [Clonidine] | 5.6 |  |  |  |  |  |
| O=C1C(Cl)=C(Nc2ccccc2)C(=O)c2ccccc21 [Compound 1] |  | < 5 | 8 |  |  | inhibition at 10 µM (MAO B [1]): 22%; inhibition at 100 µM (Aβ40): ~60%; inhibition at 10 µM ([2]; at 10 μM): 39% |
| O=C1C(Cl)=C(NCCCc2ccccc2)C(=O)c2ccccc21 [Compound 4, 2-Chloro-3-(phenylpropylamino)-1,4-naphthoquinone] |  |  | 35 | 8.2 ± 0.3 | 3.5 ± 0.3 | IC50 (hMAO A): 3 ± 0.2 µM; IC50 (MAO B [1]): 0.054 ± 0.001 µM |
| O=C1C(Cl)=C(NCCc2c[nH]c3ccccc23)C(=O)c2ccccc21 [Compound 5] | 14.3 ± 1.3 |  | 29 | 6.6 ± 0.1 | 8.7 ± 0.8 | cell viability vs control (%) (cerebellar granule cells): 85 ± 14%; CNS prediction [5]: CNS+; IC50 (hMAO A): 5 ± 0.2 µM; IC50 (MAO B [1]): 0.11 ± 0.01 µM |
| O=C1C(Cl)=C(NCCn2cnc3ccccc32)C(=O)c2ccccc21 [Compound 6, 2-[2-(1H-Benzimidazol-1-yl)ethylamino]-3-chloro-1,4-naphthoquinone] |  | 23 | 24 | 19 ± 4 | 6.8 ± 0.7 | inhibition at 10 µM (MAO B [1]): 24% |
| O=C1C(Cl)=C(NCCn2nnc3ccccc32)C(=O)c2ccccc21 [Compound 7, 2-{[2-(1H-Benzotriazol-1-yl)ethy]amino}-3-chloro-1,4-naphthoquinone] |  | 21 | 15 | 8.7 ± 0.4 | 1.7 ± 0.1 | IC50 (MAO B [1]): 0.48 ± 0.08 µM |
| O=C1C(Cl)=C(NC(Cc2ccccc2)C(=O)O)C(=O)c2ccccc21 (centres unmarked) [Compound 8] | 6.1 ± 0.4 | 26 | 14 | 17 ± 2 | 13 ± 2 | CNS prediction [5]: CNS+; IC50 (MAO B [1]): 2.7 ± 0.8 µM |
| O=C1C(Cl)=C(NC(Cc2c[nH]c3ccccc23)C(=O)O)C(=O)c2ccccc21 (centres unmarked) [Compound 9] |  | 22 | 17 | 14 ± 2 | 11 ± 1 | inhibition at 10 µM (MAO B [1]): 52% |
| O=C1c2ccccc2C(=O)c2c(NCc3ccccc3)cccc21 [Compound 10, 1-(Benzylamino)-9,10-anthraquinone] |  |  | 24 |  | 8.7 ± 0.5 | IC50 (hMAO A): 1.1 ± 0.3 µM; inhibition at 10 µM (MAO B [1]): 34%; inhibition at 100 µM (Aβ40): ~60% |
| O=C1c2ccccc2C(=O)c2c(NCCCc3ccccc3)cccc21 [Compound 12, 1-[(3-Phenylpropryl)amino]-9,10-anthraquinone] | 22 ± 1.9 | 50 |  | 1.9 ± 0.3 | 7.84 ± 0.03 | cell viability vs control (%) (cerebellar granule cells): 77 ± 12%; inhibition of Aβ42 aggregation (activity profile) (Aβ42): best activity profile; CNS prediction [5]: CNS+; IC50 (MAO B [1]): 0.24 ± 0.05 µM; IC50 [3]: 8.2 ± 0.4 µM |
| O=C1c2ccccc2C(=O)c2c(NCCc3c[nH]c4ccccc34)cccc21 [Compound 13, 1-{[2-(1H-Indol-3-yl)ethyl]amino}-9,10-anthraquinone] |  | 25 | 17 |  | 1.85 ± 0.04 | inhibition at 10 µM (MAO B [1]): 42%; inhibition at 100 µM (Aβ40): ~60% |
| O=C1c2ccccc2C(=O)c2c(NCCn3nnc4ccccc43)cccc21 [Compound 14, 1-{[2-(1H-Benzotriazol-1-yl)ethyl]amino}-9,10-anthraquinone] |  | 53 |  | 11 ± 2 | 8.1 ± 0.5 | inhibition of Aβ42 aggregation (activity profile) (Aβ42): best activity profile; IC50 (MAO B [1]): 0.98 ± 0.14 µM; IC50 [3]: 3.4 ± 0.2 µM |
| NCCc1ccc(O)c(O)c1 [Dopamine] | 0.6 |  |  |  |  |  |
| O=C1C=C(NC[C@@H]2CCCN3CCCC[C@H]23)C(=O)c2ccccc21 [I] |  |  |  |  |  | IC50 (AChE): 5.8 µM |
| CCn1cc(C(=O)O)c(=O)c2cc(F)c(N3CCNC(C)C3)c(F)c21 (centres unmarked) [Lomefloxacin] | 1.5 |  |  |  |  |  |
| CCn1cc(C(=O)O)c(=O)c2cc(F)c(N3CCNCC3)cc21 [Norfloxacin] | 0.3 |  |  |  |  |  |
| CN1C(C(=O)Nc2ccccn2)=C(O)c2ccccc2S1(=O)=O [Piroxicam] |  |  |  |  |  | Papp (in vitro): 1.6 ×10⁻⁶ cm/s |
| CC(=O)[C@H]1CC[C@H]2[C@@H]3CCC4=CC(=O)CC[C@]4(C)[C@H]3CC[C@]12C [Progesterone] | 11.7 |  |  |  |  |  |
| O=C1C(Cl)=C(NCCCC2CCCN3CCCCC23)C(=O)c2ccccc21 (centres unmarked) [VI] |  |  |  |  |  | IC50 (AChE): 0.011 µM; IC50 (BChE): 12 µM |
| O=C1c2ccccc2C(=O)c2c(NCCCSC[C@@H]3CCCN4CCCC[C@H]34)cccc21 [XII] |  |  |  |  |  | IC50 (BChE): 1.1 µM |
| O=C1c2ccccc2C(=O)c2c(SC[C@@H]3CCCN4CCCC[C@H]34)cccc21 [XIV] |  |  |  |  |  | IC50 (AChE): 3.8 µM; IC50 (BChE): 3.4 µM |
| O=C1c2ccccc2C(=O)c2c(NCC[C@@H]3CCCN4CCCC[C@H]34)cccc21 [X] |  |  |  |  |  | IC50 (AChE): 0.84 µM |
| C#CCN(C)Cc1ccccc1 [pargyline, reference compound] |  |  |  |  |  | MAO B enzymatic activity in time course (MAO B [4]; 1 h preincubation with enzyme): completely inhibited; time until MAO B enzymatic activity came to saturation (MAO B [4]; no preincubation): about 1 h |
| O=c1c(O)c(-c2ccc(O)c(O)c2)oc2cc(O)cc(O)c12 [quercetin, reference compound] | 0.14 ± 0.06 |  |  |  |  | CNS prediction (PAMPA): CNS- |
